Measured values: PubChem BioAssay AID1745844 (Carcinogenic Potency Database (CPDB), 2022)
Several values for one entry are separate records, joined by “and”; a condition that tells them apart may be missing. Equal values may be shown once. Activity calls are given as the source filed them. No rule for the calls is given here.

Tested on: rodent lifetime carcinogenesis bioassay, tumor incidence TD50
Test: carcinogenic potency in animals, long-term in vivo studies, CPDB compilation (AID 1745844)

C=CC(=C)C
TD50 (mouse, strain B6C3F1, females, inhaled, site: Harderian gland, lesion: adenoma, dosed 80 weeks, study length 105 weeks): 319 mg/kg/day
TD50 (mouse, strain B6C3F1, females, inhaled, site: pituitary gland, lesion: pars distalis adenoma, dosed 80 weeks, study length 105 weeks): 247 mg/kg/day
TD50 (mouse, strain B6C3F1, females, inhaled, site: spleen, lesion: hemangiosarcoma, dosed 80 weeks, study length 105 weeks): 682 mg/kg/day
TD50 (mouse, strain B6C3F1, males, inhaled, site: Harderian gland, lesion: adenoma + carcinoma, dosed 26 weeks, study length 53 weeks): 96.8 mg/kg/day
TD50 (mouse, strain B6C3F1, males, inhaled, site: Harderian gland, lesion: adenoma, dosed 26 weeks, study length 53 weeks): 96.8 mg/kg/day
TD50 (mouse, strain B6C3F1, males, inhaled, site: Harderian gland, lesion: adenoma, dosed 40 weeks, study length 105 weeks): 739 mg/kg/day
TD50 (mouse, strain B6C3F1, males, inhaled, site: Harderian gland, lesion: adenoma, dosed 80 weeks, study length 96 weeks): 711 mg/kg/day
TD50 (mouse, strain B6C3F1, males, inhaled, site: Harderian gland, lesion: adenoma, dosed 80 weeks, study length 105 weeks): 881 mg/kg/day
TD50 (mouse, strain B6C3F1, males, inhaled, site: Harderian gland, lesion: carcinoma, dosed 26 weeks, study length 53 weeks): 14700 mg/kg/day
TD50 (mouse, strain B6C3F1, males, inhaled, site: Harderian gland, lesion: carcinoma, dosed 80 weeks, study length 96 weeks): 12800 mg/kg/day
TD50 (mouse, strain B6C3F1, males, inhaled, site: Harderian gland, lesion: carcinoma, dosed 80 weeks, study length 105 weeks): 15000 mg/kg/day
TD50 (mouse, strain B6C3F1, males, inhaled, site: any site (literature study), lesion: several types, types named in the paper, dosed 26 weeks, study length 53 weeks): 348 mg/kg/day
TD50 (mouse, strain B6C3F1, males, inhaled, site: forestomach + Harderian gland + liver + lung, lesion: squamous-cell carcinoma + squamous-cell papilloma + adenoma + carcinoma + hepatocellular adenoma + hepatocellular carcinoma + alveol, dosed 26 weeks, study length 53 weeks): 355 mg/kg/day
TD50 (mouse, strain B6C3F1, males, inhaled, site: forestomach, lesion: squamous-cell carcinoma + squamous-cell papilloma, dosed 26 weeks, study length 53 weeks): 1310 mg/kg/day
TD50 (mouse, strain B6C3F1, males, inhaled, site: forestomach, lesion: squamous-cell carcinoma, dosed 26 weeks, study length 53 weeks): 4850 mg/kg/day
TD50 (mouse, strain B6C3F1, males, inhaled, site: forestomach, lesion: squamous-cell carcinoma, dosed 80 weeks, study length 96 weeks): 25800 mg/kg/day
TD50 (mouse, strain B6C3F1, males, inhaled, site: forestomach, lesion: squamous-cell carcinoma, dosed 80 weeks, study length 105 weeks): 22200 mg/kg/day
TD50 (mouse, strain B6C3F1, males, inhaled, site: forestomach, lesion: squamous-cell papilloma, dosed 26 weeks, study length 53 weeks): 1860 mg/kg/day
TD50 (mouse, strain B6C3F1, males, inhaled, site: forestomach, lesion: squamous-cell papilloma, dosed 40 weeks, study length 105 weeks): 15600 mg/kg/day
TD50 (mouse, strain B6C3F1, males, inhaled, site: forestomach, lesion: squamous-cell papilloma, dosed 80 weeks, study length 96 weeks): 25800 mg/kg/day
TD50 (mouse, strain B6C3F1, males, inhaled, site: forestomach, lesion: squamous-cell papilloma, dosed 80 weeks, study length 105 weeks): 45000 mg/kg/day
TD50 (mouse, strain B6C3F1, males, inhaled, site: heart, lesion: hemangiosarcoma, dosed 40 weeks, study length 105 weeks): 32900 mg/kg/day
TD50 (mouse, strain B6C3F1, males, inhaled, site: heart, lesion: hemangiosarcoma, dosed 80 weeks, study length 96 weeks): 25800 mg/kg/day
TD50 (mouse, strain B6C3F1, males, inhaled, site: heart, lesion: hemangiosarcoma, dosed 80 weeks, study length 105 weeks): 39000 mg/kg/day
TD50 (mouse, strain B6C3F1, males, inhaled, site: liver, lesion: hepatocellular adenoma + hepatoblastoma + hepatocellular carcinoma, dosed 26 weeks, study length 53 weeks): 183 mg/kg/day
TD50 (mouse, strain B6C3F1, males, inhaled, site: liver, lesion: hepatocellular adenoma + hepatocellular carcinoma, dosed 26 weeks, study length 53 weeks): 183 mg/kg/day
TD50 (mouse, strain B6C3F1, males, inhaled, site: liver, lesion: hepatocellular adenoma, dosed 26 weeks, study length 53 weeks): 150 mg/kg/day
TD50 (mouse, strain B6C3F1, males, inhaled, site: liver, lesion: hepatocellular adenoma, dosed 40 weeks, study length 105 weeks): 1070 mg/kg/day
TD50 (mouse, strain B6C3F1, males, inhaled, site: liver, lesion: hepatocellular adenoma, dosed 80 weeks, study length 96 weeks): 1760 mg/kg/day
TD50 (mouse, strain B6C3F1, males, inhaled, site: liver, lesion: hepatocellular adenoma, dosed 80 weeks, study length 105 weeks): 1570 mg/kg/day
TD50 (mouse, strain B6C3F1, males, inhaled, site: liver, lesion: hepatocellular carcinoma, dosed 26 weeks, study length 53 weeks): 1270 mg/kg/day
TD50 (mouse, strain B6C3F1, males, inhaled, site: liver, lesion: hepatocellular carcinoma, dosed 40 weeks, study length 105 weeks): 2330 mg/kg/day
TD50 (mouse, strain B6C3F1, males, inhaled, site: liver, lesion: hepatocellular carcinoma, dosed 80 weeks, study length 96 weeks): 3290 mg/kg/day
TD50 (mouse, strain B6C3F1, males, inhaled, site: liver, lesion: hepatocellular carcinoma, dosed 80 weeks, study length 105 weeks): 4850 mg/kg/day
TD50 (mouse, strain B6C3F1, males, inhaled, site: lung, lesion: alveolar/bronchiolar adenoma + alveolar/bronchiolar carcinoma, dosed 26 weeks, study length 53 weeks): 752 mg/kg/day
TD50 (mouse, strain B6C3F1, males, inhaled, site: lung, lesion: alveolar/bronchiolar adenoma, dosed 26 weeks, study length 53 weeks): 836 mg/kg/day
TD50 (mouse, strain B6C3F1, males, inhaled, site: lung, lesion: alveolar/bronchiolar adenoma, dosed 40 weeks, study length 105 weeks): 908 mg/kg/day
TD50 (mouse, strain B6C3F1, males, inhaled, site: lung, lesion: alveolar/bronchiolar adenoma, dosed 80 weeks, study length 96 weeks): 4810 mg/kg/day
TD50 (mouse, strain B6C3F1, males, inhaled, site: lung, lesion: alveolar/bronchiolar adenoma, dosed 80 weeks, study length 105 weeks): 1660 mg/kg/day
TD50 (mouse, strain B6C3F1, males, inhaled, site: lung, lesion: alveolar/bronchiolar carcinoma, dosed 26 weeks, study length 53 weeks): 2790 mg/kg/day
TD50 (mouse, strain B6C3F1, males, inhaled, site: lung, lesion: alveolar/bronchiolar carcinoma, dosed 40 weeks, study length 105 weeks): 9230 mg/kg/day
TD50 (mouse, strain B6C3F1, males, inhaled, site: lung, lesion: alveolar/bronchiolar carcinoma, dosed 80 weeks, study length 96 weeks): 8410 mg/kg/day
TD50 (mouse, strain B6C3F1, males, inhaled, site: lung, lesion: alveolar/bronchiolar carcinoma, dosed 80 weeks, study length 105 weeks): 6680 mg/kg/day
TD50 (mouse, strain B6C3F1, males, inhaled, site: lymphoreticular system, lesion: histiocytic sarcoma, dosed 40 weeks, study length 105 weeks): 4430 mg/kg/day
TD50 (mouse, strain B6C3F1, males, inhaled, site: lymphoreticular system, lesion: histiocytic sarcoma, dosed 80 weeks, study length 96 weeks): 3450 mg/kg/day
TD50 (mouse, strain B6C3F1, males, inhaled, site: lymphoreticular system, lesion: histiocytic sarcoma, dosed 80 weeks, study length 105 weeks): 150000 mg/kg/day
TD50 (mouse, strain B6C3F1, males, inhaled, site: spleen, lesion: hemangiosarcoma, dosed 80 weeks, study length 96 weeks): 25800 mg/kg/day
TD50 (rat, strain Fischer 344, females, inhaled, site: any site (literature study), lesion: several types, types named in the paper, dosed 105 weeks, study length 105 weeks): 6940 mg/kg/day
TD50 (rat, strain Fischer 344, females, inhaled, site: brain, meninges, lesion: granular-cell tumor, benign, dosed 105 weeks, study length 105 weeks): 40600 mg/kg/day
TD50 (rat, strain Fischer 344, females, inhaled, site: brain, meninges, lesion: sarcoma, dosed 105 weeks, study length 105 weeks): 50800 mg/kg/day
carcinogen call (rat, strain Fischer 344, females, inhaled, site: brain, lesion: astrocytoma, benign, dosed 105 weeks, study length 105 weeks): e
TD50 (rat, strain Fischer 344, females, inhaled, site: brain, lesion: malignant glioma, dosed 105 weeks, study length 105 weeks): 30800 mg/kg/day
TD50 (rat, strain Fischer 344, females, inhaled, site: brain, lesion: medulloblastoma, malignant, dosed 105 weeks, study length 105 weeks): 52800 mg/kg/day
TD50 (rat, strain Fischer 344, females, inhaled, site: liver, lesion: hepatocellular adenoma + hepatoblastoma + hepatocellular carcinoma, dosed 105 weeks, study length 105 weeks): 25300 mg/kg/day
TD50 (rat, strain Fischer 344, females, inhaled, site: mammary gland, lesion: fibroadenoma + fibroadenoma, multiple, dosed 105 weeks, study length 105 weeks): 3340 mg/kg/day
TD50 (rat, strain Fischer 344, females, inhaled, site: mammary gland, lesion: fibroadenoma, multiple, dosed 105 weeks, study length 105 weeks): 206 mg/kg/day
TD50 (rat, strain Fischer 344, males, inhaled, site: kidney + mammary gland + testis, lesion: tubule adenoma + carcinoma + fibroadenoma + fibroadenoma, multiple + interstitial-cell adenoma, bilateral + interstitial-cell aden, dosed 104 weeks, study length 104 weeks): 988 mg/kg/day
TD50 (rat, strain Fischer 344, males, inhaled, site: kidney, lesion: tubule adenoma + tubule carcinoma, dosed 104 weeks, study length 104 weeks): 3150 mg/kg/day and 2290 mg/kg/day
TD50 (rat, strain Fischer 344, males, inhaled, site: kidney, lesion: tubule adenoma, dosed 104 weeks, study length 104 weeks): 3150 mg/kg/day and 2290 mg/kg/day
TD50 (rat, strain Fischer 344, males, inhaled, site: mammary gland, lesion: carcinoma + fibroadenoma, dosed 104 weeks, study length 104 weeks): 670 mg/kg/day
TD50 (rat, strain Fischer 344, males, inhaled, site: mammary gland, lesion: carcinoma, dosed 104 weeks, study length 104 weeks): 7880 mg/kg/day
TD50 (rat, strain Fischer 344, males, inhaled, site: mammary gland, lesion: fibroadenoma + fibroadenoma, multiple, dosed 104 weeks, study length 104 weeks): 655 mg/kg/day
TD50 (rat, strain Fischer 344, males, inhaled, site: mammary gland, lesion: fibroadenoma, multiple, dosed 104 weeks, study length 104 weeks): 2220 mg/kg/day
TD50 (rat, strain Fischer 344, males, inhaled, site: mammary gland, lesion: fibroadenoma, dosed 104 weeks, study length 104 weeks): 655 mg/kg/day
TD50 (rat, strain Fischer 344, males, inhaled, site: testis, lesion: interstitial-cell adenoma, bilateral + interstitial-cell adenoma, dosed 104 weeks, study length 104 weeks): 914 mg/kg/day
TD50 (rat, strain Fischer 344, males, inhaled, site: testis, lesion: interstitial-cell adenoma, dosed 26 weeks, study length 52 weeks): 316 mg/kg/day

O=Nc1ccc(Nc2ccccc2)cc1
TD50 (mouse, strain B6C3F1, females, in feed, site: any site (literature study), lesion: several types, types named in the paper, dosed 53 weeks, study length 92 weeks): 2170 mg/kg/day (inactive)
TD50 (mouse, strain B6C3F1, females, in feed, site: liver, lesion: hepatocellular adenoma + hepatocellular carcinoma + neoplastic nodule, dosed 53 weeks, study length 92 weeks): 2250 mg/kg/day
TD50 (mouse, strain B6C3F1, females, in feed, site: lung, lesion: alveolar/bronchiolar adenoma + alveolar/bronchiolar carcinoma, dosed 53 weeks, study length 92 weeks): 5410 mg/kg/day
TD50 (mouse, strain B6C3F1, males, in feed, site: any site (literature study), lesion: several types, types named in the paper, dosed 53 weeks, study length 92 weeks): 260 mg/kg/day
TD50 (mouse, strain B6C3F1, males, in feed, site: liver, lesion: hepatocellular adenoma + hepatocellular carcinoma + neoplastic nodule, dosed 53 weeks, study length 92 weeks): 340 mg/kg/day
TD50 (mouse, strain B6C3F1, males, in feed, site: liver, lesion: hepatocellular adenoma + hepatocellular carcinoma, dosed 53 weeks, study length 92 weeks): 340 mg/kg/day
TD50 (mouse, strain B6C3F1, males, in feed, site: liver, lesion: hepatocellular carcinoma, dosed 53 weeks, study length 92 weeks): 661 mg/kg/day
TD50 (mouse, strain B6C3F1, males, in feed, site: lung, lesion: alveolar/bronchiolar adenoma + alveolar/bronchiolar carcinoma, dosed 53 weeks, study length 92 weeks): 3520 mg/kg/day
carcinogen call (rat, strain Fischer 344, females, in feed, site: any site (literature study), lesion: several types, types named in the paper, dosed 78 weeks, study length 105 weeks): negative (inactive)
TD50 (rat, strain Fischer 344, females, in feed, site: liver, lesion: hepatocellular adenoma + hepatocellular carcinoma + neoplastic nodule, dosed 78 weeks, study length 105 weeks): 1210 mg/kg/day
TD50 (rat, strain Fischer 344, males, in feed, site: liver, lesion: hepatocellular adenoma + hepatocellular carcinoma + neoplastic nodule, dosed 78 weeks, study length 105 weeks): 201 mg/kg/day
TD50 (rat, strain Fischer 344, males, in feed, site: liver, lesion: hepatocellular carcinoma + neoplastic nodule, dosed 78 weeks, study length 105 weeks): 201 mg/kg/day

CCSCC[C@H](N)C(=O)O
carcinogen call (rat, strain Wistar, males, in feed, site: liver, lesion: carcinoma, dosed 34 weeks, study length 52 weeks): positive
